The target in assay [1] is PIK3CD (Human) (UniProt O00329). As to the kind of experiment: Assessment of PIK3CD Kinase Activity.
Assay [2] has the same target. Put plainly: Assessment of PIK3CD Kinase Activity in RAJI Cells.
In assay [3] the target is PIK3CG (human) (UniProt P48736). As to the kind of experiment: Assessment of PIK3CG Kinase Activity.
The target of assay [4] is PIK3CA (human) (UniProt P42336). As to the kind of experiment: Assessment of PIK3CA Kinase Activity.
Assay [5] has as its target PIK3CB (Human) (UniProt P42338). Put plainly: Assessment of PIK3CB Kinase Activity.

A word on the IC50: it is the concentration at which inhibition is half-maximal. A higher IC50 goes with weaker potency in that assay.

PIK3CG (human), sequence (P48736 whole entry, looked up): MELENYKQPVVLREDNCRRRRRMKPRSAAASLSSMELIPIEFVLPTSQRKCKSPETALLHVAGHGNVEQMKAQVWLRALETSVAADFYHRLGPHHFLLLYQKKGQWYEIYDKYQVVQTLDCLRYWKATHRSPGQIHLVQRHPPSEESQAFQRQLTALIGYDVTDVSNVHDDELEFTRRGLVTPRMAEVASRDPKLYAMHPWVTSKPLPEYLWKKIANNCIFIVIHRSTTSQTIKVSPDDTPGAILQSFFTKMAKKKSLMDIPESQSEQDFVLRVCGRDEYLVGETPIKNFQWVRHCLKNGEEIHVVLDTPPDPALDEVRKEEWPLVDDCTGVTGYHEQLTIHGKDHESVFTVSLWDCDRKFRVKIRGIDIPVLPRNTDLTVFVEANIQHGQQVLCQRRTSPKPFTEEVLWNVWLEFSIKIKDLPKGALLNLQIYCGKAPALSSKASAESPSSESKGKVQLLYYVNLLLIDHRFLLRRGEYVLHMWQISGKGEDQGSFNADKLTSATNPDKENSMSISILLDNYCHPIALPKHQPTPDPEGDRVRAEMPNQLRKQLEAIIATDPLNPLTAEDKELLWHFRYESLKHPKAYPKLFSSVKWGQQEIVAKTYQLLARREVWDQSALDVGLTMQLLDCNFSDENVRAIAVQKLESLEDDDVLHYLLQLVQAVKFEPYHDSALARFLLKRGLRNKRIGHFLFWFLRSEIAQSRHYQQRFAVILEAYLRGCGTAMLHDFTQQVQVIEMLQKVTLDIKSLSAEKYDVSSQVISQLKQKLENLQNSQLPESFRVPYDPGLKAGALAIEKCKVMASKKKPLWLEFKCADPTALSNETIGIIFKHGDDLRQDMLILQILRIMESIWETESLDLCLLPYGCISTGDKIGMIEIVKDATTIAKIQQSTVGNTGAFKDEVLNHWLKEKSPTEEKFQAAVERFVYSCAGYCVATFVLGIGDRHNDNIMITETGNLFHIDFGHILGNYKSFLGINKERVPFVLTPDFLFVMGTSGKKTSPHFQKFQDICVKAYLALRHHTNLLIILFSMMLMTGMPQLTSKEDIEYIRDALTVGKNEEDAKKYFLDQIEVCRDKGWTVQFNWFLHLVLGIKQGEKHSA
PIK3CB (Human), sequence (P42338 whole entry, looked up): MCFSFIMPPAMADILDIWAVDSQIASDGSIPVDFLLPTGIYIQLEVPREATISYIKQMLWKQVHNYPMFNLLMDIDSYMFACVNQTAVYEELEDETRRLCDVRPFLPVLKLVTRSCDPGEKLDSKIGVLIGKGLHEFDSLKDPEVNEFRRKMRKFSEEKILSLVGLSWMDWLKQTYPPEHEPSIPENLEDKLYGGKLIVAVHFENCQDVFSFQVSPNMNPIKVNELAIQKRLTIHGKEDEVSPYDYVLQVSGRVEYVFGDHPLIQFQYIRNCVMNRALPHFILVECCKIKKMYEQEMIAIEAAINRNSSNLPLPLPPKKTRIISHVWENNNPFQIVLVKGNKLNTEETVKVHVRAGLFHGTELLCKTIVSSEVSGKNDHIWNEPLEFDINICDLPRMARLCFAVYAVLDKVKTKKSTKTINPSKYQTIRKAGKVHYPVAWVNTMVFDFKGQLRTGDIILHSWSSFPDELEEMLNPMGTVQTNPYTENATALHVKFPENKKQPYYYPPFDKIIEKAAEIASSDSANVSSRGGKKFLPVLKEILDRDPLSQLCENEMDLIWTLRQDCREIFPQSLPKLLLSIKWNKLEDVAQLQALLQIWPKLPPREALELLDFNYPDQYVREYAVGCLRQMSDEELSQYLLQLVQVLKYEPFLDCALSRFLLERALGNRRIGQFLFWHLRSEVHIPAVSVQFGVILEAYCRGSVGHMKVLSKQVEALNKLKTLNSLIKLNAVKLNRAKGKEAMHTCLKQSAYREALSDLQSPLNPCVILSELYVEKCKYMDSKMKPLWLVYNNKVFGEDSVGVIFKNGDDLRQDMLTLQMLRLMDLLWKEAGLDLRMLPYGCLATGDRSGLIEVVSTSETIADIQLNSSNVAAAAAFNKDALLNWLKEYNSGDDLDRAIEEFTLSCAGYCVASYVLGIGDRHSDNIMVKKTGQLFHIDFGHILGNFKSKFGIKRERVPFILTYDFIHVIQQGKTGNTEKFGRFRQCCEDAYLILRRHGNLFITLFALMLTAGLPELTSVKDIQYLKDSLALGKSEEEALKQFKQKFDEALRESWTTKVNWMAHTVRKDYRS
PIK3CD (Human), sequence (O00329 whole entry, looked up): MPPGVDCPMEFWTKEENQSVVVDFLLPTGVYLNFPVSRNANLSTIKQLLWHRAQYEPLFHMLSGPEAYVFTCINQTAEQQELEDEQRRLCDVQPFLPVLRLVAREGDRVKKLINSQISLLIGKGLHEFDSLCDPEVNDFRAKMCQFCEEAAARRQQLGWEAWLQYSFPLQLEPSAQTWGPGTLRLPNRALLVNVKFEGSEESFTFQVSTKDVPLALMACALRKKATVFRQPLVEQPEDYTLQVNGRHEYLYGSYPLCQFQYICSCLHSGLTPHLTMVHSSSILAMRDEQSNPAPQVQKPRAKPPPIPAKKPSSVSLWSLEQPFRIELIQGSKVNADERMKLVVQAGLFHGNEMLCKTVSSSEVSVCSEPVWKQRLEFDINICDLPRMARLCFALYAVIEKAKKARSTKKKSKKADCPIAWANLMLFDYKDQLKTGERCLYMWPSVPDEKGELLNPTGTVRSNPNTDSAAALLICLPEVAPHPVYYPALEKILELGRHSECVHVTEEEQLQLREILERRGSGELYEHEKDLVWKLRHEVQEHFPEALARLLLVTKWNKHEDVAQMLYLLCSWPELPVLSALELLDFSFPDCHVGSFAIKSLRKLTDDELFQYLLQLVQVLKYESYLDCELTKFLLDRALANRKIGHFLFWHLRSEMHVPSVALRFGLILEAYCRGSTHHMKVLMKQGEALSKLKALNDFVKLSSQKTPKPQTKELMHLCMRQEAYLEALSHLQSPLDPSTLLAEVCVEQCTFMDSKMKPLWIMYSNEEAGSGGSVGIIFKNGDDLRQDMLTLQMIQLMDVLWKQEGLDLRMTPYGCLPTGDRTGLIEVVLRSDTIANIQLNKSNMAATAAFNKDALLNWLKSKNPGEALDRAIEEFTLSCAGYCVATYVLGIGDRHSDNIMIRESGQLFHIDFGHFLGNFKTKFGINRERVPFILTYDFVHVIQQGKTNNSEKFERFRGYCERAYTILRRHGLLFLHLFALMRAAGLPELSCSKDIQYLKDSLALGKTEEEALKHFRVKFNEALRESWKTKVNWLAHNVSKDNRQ
PIK3CA (human), sequence (P42336 whole entry, looked up): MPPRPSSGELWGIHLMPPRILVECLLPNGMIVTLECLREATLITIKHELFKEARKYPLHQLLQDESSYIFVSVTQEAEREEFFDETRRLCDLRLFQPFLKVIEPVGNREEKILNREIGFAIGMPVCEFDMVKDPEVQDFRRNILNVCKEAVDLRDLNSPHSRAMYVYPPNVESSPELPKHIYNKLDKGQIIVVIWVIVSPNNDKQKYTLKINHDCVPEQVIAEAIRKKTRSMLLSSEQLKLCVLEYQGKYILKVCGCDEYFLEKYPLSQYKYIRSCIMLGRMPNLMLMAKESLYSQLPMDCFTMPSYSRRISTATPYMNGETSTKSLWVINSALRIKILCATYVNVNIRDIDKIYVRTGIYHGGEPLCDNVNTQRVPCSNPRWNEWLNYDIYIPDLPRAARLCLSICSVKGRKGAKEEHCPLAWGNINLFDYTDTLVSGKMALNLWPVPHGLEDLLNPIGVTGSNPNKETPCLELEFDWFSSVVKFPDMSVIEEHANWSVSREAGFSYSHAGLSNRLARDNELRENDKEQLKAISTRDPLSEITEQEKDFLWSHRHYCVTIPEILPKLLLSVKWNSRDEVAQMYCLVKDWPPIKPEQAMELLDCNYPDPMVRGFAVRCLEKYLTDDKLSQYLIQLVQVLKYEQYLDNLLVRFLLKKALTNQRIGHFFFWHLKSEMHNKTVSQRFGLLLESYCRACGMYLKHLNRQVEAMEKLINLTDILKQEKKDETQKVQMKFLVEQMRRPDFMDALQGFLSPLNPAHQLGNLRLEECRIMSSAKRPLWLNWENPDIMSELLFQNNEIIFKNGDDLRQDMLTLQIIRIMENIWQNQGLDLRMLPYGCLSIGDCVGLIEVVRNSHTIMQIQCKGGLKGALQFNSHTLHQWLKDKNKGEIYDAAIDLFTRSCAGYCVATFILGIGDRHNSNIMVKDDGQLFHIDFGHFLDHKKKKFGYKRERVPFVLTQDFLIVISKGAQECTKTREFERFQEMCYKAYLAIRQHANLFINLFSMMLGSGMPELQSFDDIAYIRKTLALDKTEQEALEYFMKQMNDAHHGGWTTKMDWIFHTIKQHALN

Take `C[C@H](Nc1nc(N)ncc1-c1cccc(S(C)(=O)=O)c1)c1cc2cccc(C(F)(F)F)c2c(=O)n1-c1ccccc1`: the figures for the half-inhibitory concentration (IC50) in assay [1], in assay [2] and in assay [3] were 100 to 1000 nM, less than 100 nM and 100 to 1000 nM, respectively.

With `COc1ncc(-c2cnc(N)nc2N[C@@H](C)c2cc3cccc(Cl)c3c(=O)n2-c2ccccc2)s1`, the IC50 was less than 100 nM in assay [1], less than 100 nM in assay [2], less than 100 nM in assay [3] and more than 10000 nM in assay [4].

In the case of `C[C@H](Nc1nc(N)ncc1C#N)c1cc2cccc(-c3cncc(NS(C)(=O)=O)c3)c2c(=O)n1-c1ccccc1`, the IC50 in assay [2] and in assay [3] was less than 100 nM in each case.

`C[C@H](Nc1ncnc(N)c1C#N)c1cc2cccc(Cl)c2c(C(=O)NC2CCOCC2)n1`: the half-inhibitory concentration (IC50) in assay [1] is 100 to 1000 nM; in assay [2], less than 100 nM; in assay [5] it was more than 10000 nM; in assay [4], more than 10000 nM.

Turning to `CC(C)OC(=O)c1cccc(-n2c([C@H](C)Nc3nc(N)ncc3C#N)cc3cccc(Cl)c3c2=O)c1`, the half-maximal inhibitory concentration (IC50) in assay [1] was 100 to 1000 nM; in assay [2] it was less than 100 nM; in assay [5], more than 10000 nM; in assay [3], 100 to 1000 nM; in assay [4] it was more than 10000 nM.

With `CCS(=O)(=O)c1cccc(-c2cnc(N)nc2N[C@@H](C)c2cc3cccc(Cl)c3c(=O)n2-c2ccccc2)c1`, the IC50 in assay [1] was 100 to 1000 nM; in assay [2], less than 100 nM; in assay [5] it was 100 to 1000 nM; in assay [3], more than 10000 nM.

With `C[C@H](Nc1nc(N)ncc1-c1cccc(NS(=O)(=O)N(C)C)c1)c1cc2cccc(Cl)c2c(=O)n1-c1ccccc1`, the concentration for half-maximal inhibition (IC50) was less than 100 nM in assay [1]; less than 100 nM in assay [2]; 100 to 1000 nM in assay [5]; less than 100 nM in assay [3]; more than 10000 nM in assay [4].

In the case of `C[C@H](Nc1nc(N)ncc1-c1cnc(S(C)(=O)=O)s1)c1cc2cccc(Cl)c2c(=O)n1-c1ccccc1`, the IC50 is less than 100 nM in assay [1], less than 100 nM in assay [2], less than 100 nM in assay [3] and more than 10000 nM in assay [4].

On to `COc1cccc(-n2c([C@H](C)Nc3nc(N)ncc3C#N)cc3cccc(Cl)c3c2=O)c1`, for which the IC50 in assay [1] was 100 to 1000 nM; in assay [2], less than 100 nM; in assay [3], less than 100 nM; in assay [4], more than 10000 nM.

As to `C[C@H](Nc1nc(N)ncc1C#N)c1cc2cccc(Cl)c2c(=O)n1-c1c(F)cccc1F`, the half-inhibitory concentration (IC50) was less than 100 nM in assay [2], 100 to 1000 nM in assay [3] and more than 10000 nM in assay [4].

Take `CC(C)C(=O)c1cnc(N)nc1N[C@@H](C)c1cc2cccc(Cl)c2c(=O)n1-c1ccccc1`: the IC50 in assay [1] was 100 to 1000 nM; in assay [2], less than 100 nM; in assay [5] it was more than 10000 nM; in assay [3] it was 100 to 1000 nM.

Regarding `C[C@H](Nc1nc(N)ncc1C#N)c1cc2cccc(-c3ccc(=O)n(C)c3)c2c(=O)n1-c1ccon1`, the IC50 in assay [2] is less than 100 nM; in assay [3], 100 to 1000 nM.

As for `C[C@H](Nc1ncncc1-c1cccc(S(=O)(=O)N(C)C)c1)c1cc2cccc(Cl)c2c(=O)n1-c1ccccc1`, the IC50 in assay [1] is 100 to 1000 nM; in assay [2], less than 100 nM; in assay [5] it was more than 10000 nM; in assay [3], 100 to 1000 nM.

Regarding `CNS(=O)(=O)c1cccc(-c2cnc(N)nc2N[C@@H](C)c2cc3cccc(Cl)c3c(=O)n2-c2ccccc2)c1`, the half-maximal inhibitory concentration (IC50) was 100 to 1000 nM in assay [1], less than 100 nM in assay [2], 100 to 1000 nM in assay [5] and less than 100 nM in assay [3].

For `C[C@H](Nc1nc(N)ncc1-c1cccc(S(N)(=O)=O)c1)c1cc2cccc(Cl)c2c(=O)n1-c1ccccc1`, the IC50 in assay [1] was 100 to 1000 nM; in assay [2] it was less than 100 nM; in assay [5], more than 10000 nM; in assay [3], less than 100 nM.

`COc1ncc(-c2cccc3cc([C@H](C)Nc4nc(N)ncc4-c4cncs4)n(-c4ccccc4)c(=O)c23)cn1`: the IC50 in assay [1], in assay [2] and in assay [3] was less than 100 nM in each case.

`C[C@H](Nc1nc(N)ncc1-c1ccc(S(C)(=O)=O)nc1)c1cc2cccc(Cl)c2c(=O)n1-c1ccccc1`: the IC50 in assay [2] was less than 100 nM; in assay [3], 100 to 1000 nM; in assay [4], more than 10000 nM.

Turning to `COc1ncc(-c2cccc3cc([C@H](C)Nc4nc(N)ncc4C#N)n(-c4ccon4)c(=O)c23)cn1`, the IC50 in assay [1] is 100 to 1000 nM; in assay [2], less than 100 nM; in assay [5], more than 10000 nM; in assay [4], more than 10000 nM.

`C[C@H](Nc1nc(N)ncc1C#N)c1cc2cccc(Cl)c2c(=O)n1C1CC1`: the IC50 is less than 100 nM in assay [2], less than 100 nM in assay [3] and more than 10000 nM in assay [4].

Regarding `C[C@H](Nc1nc(N)ncc1-c1cccc(S(C)(=O)=O)c1)c1cc2cccc(Cl)c2c(=O)n1-c1ccccc1`, the results for the IC50 in assay [1], in assay [2] and in assay [3] were 100 to 1000 nM, less than 100 nM and less than 100 nM, respectively.

`C[C@H](Nc1nc(N)ncc1-c1cccc(S(=O)(=O)C2CC2)c1)c1cc2cccc(Cl)c2c(=O)n1-c1ccccc1`: the IC50 in assay [1], in assay [2] and in assay [3] was less than 100 nM each time.

Regarding `C[C@H](Nc1nc(N)ncc1-c1cccc(NS(C)(=O)=O)c1)c1cc2cccc(Cl)c2c(=O)n1-c1ccccc1`, the IC50 in assay [1], in assay [2] and in assay [3] was less than 100 nM each time.

Take `COc1ncc(-c2cccc3cc([C@H](C)Nc4ncnc(N)c4C#N)n(-c4ccon4)c(=O)c23)cn1`: the IC50 was 100 to 1000 nM in assay [1], less than 100 nM in assay [2] and more than 10000 nM in assay [5].

Turning to `C[C@H](Nc1nc(N)ncc1-c1cccc(N(C)S(C)(=O)=O)c1)c1cc2cccc(Cl)c2c(=O)n1-c1ccccc1`, the figures for the IC50 in assay [1], in assay [2] and in assay [3] were 100 to 1000 nM, less than 100 nM and less than 100 nM, respectively.

Regarding `COC(=O)c1cccc(-n2c([C@H](C)Nc3nc(N)ncc3C#N)cc3cccc(Cl)c3c2=O)c1`, the IC50 in assay [1] was 100 to 1000 nM; in assay [2] it was less than 100 nM; in assay [5] it was more than 10000 nM.

In the case of `CCOc1nc(-c2cnc(N)nc2N[C@@H](C)c2cc3cccc(-c4cnc(OC)nc4)c3c(=O)n2-c2ccccc2)cs1`, the IC50 in assay [1] was less than 100 nM; in assay [2], less than 100 nM; in assay [3], 100 to 1000 nM.

For the compound `C[C@H](Nc1nc(N)ncc1C#N)c1cc2cccc(Cl)c2c(=O)n1-c1cccc(C#N)c1`, the 50% inhibitory concentration (IC50) was less than 100 nM in assay [1], less than 100 nM in assay [2], 100 to 1000 nM in assay [5] and 100 to 1000 nM in assay [3].

For `Cc1ncc(-c2cccc3cc([C@H](C)Nc4nc(N)ncc4C#N)n(-c4ccon4)c(=O)c23)cn1`, the IC50 in assay [1] was less than 100 nM; in assay [2] it was less than 100 nM; in assay [5], more than 10000 nM; in assay [4], more than 10000 nM.

For the compound `COc1ncc(-c2cccc3cc([C@H](C)Nc4nc(N)ncc4C#N)n(C(C)C)c(=O)c23)cn1`, the 50% inhibitory concentration (IC50) in assay [1] is less than 100 nM; in assay [2], less than 100 nM; in assay [5], more than 10000 nM; in assay [3], 100 to 1000 nM.

Regarding `C[C@H](Nc1nc(N)ncc1-c1cncc(S(C)(=O)=O)c1)c1cc2cccc(Cl)c2c(=O)n1-c1ccccc1`, the half-inhibitory concentration (IC50) in assay [2] is less than 100 nM; in assay [3], 100 to 1000 nM.

Regarding `N#Cc1cnc(N)nc1NCc1cc2cccc(Cl)c2c(=O)n1-c1ccccc1`, the concentration for half-maximal inhibition (IC50) in assay [1] was less than 100 nM; in assay [2], less than 100 nM; in assay [3] it was 100 to 1000 nM.

For `COc1cc(-n2c([C@H](C)Nc3nc(N)ncc3C#N)cc3cccc(Cl)c3c2=O)ccc1F`, the IC50 in assay [2] is less than 100 nM; in assay [3], less than 100 nM; in assay [4], more than 10000 nM.

Take `Cc1ccc(NS(C)(=O)=O)cc1-c1cnc(N)nc1N[C@@H](C)c1cc2cccc(Cl)c2c(=O)n1-c1ccccc1`: the 50% inhibitory concentration (IC50) is less than 100 nM in assay [1], less than 100 nM in assay [2], less than 100 nM in assay [3] and more than 10000 nM in assay [4].

`COc1ccc(-c2cnc(N)nc2N[C@@H](C)c2cc3cccc(Cl)c3c(=O)n2-c2ccccc2)cn1`: the IC50 was 100 to 1000 nM in assay [1], less than 100 nM in assay [2], more than 10000 nM in assay [5] and less than 100 nM in assay [3].

For `C[C@H](Nc1nc(N)ncc1C#N)c1cc2cccc(-c3cncc(N(C)C)c3)c2c(=O)n1-c1ccccc1`, the IC50 in assay [1] is less than 100 nM; in assay [5] it was more than 10000 nM; in assay [3], less than 100 nM; in assay [4], 100 to 1000 nM.

On to `CC(C)n1c([C@H](C)Nc2ncnc(N)c2C#N)cc2cccc(Cl)c2c1=O`, for which the IC50 in assay [1] was less than 100 nM; in assay [2], less than 100 nM; in assay [3], 100 to 1000 nM.

Consider `C[C@H](Nc1nc(N)ncc1C#N)c1cc2cccc(Cl)c2c(=O)n1-c1ccc(F)c(F)c1`, for which the IC50 in assay [2] was less than 100 nM; in assay [3], less than 100 nM; in assay [4], more than 10000 nM.

For `COc1ncc(-c2cccc3cc([C@H](C)Nc4nc(N)ncc4C(F)(F)F)n(-c4ccccc4)c(=O)c23)cn1`, the IC50 was less than 100 nM in assay [1], more than 10000 nM in assay [5], 100 to 1000 nM in assay [3] and more than 10000 nM in assay [4].

Consider `C[C@H](Nc1nc(N)ncc1C(=O)C1CC1)c1cc2cccc(Cl)c2c(=O)n1-c1ccccc1`, for which the values for the half-maximal inhibitory concentration (IC50) in assay [2] and in assay [5] were less than 100 nM and more than 10000 nM, respectively.

Turning to `COc1cc(-c2cccc3cc([C@H](C)Nc4nc(N)ncc4C#N)n(-c4ccccc4)c(=O)c23)ccn1`, the concentration for half-maximal inhibition (IC50) was less than 100 nM in assay [1], less than 100 nM in assay [2], less than 100 nM in assay [3] and 100 to 1000 nM in assay [4].

`C[C@H](Nc1nc(N)ncc1C(=O)N1CCC1)c1cc2cccc(-c3cnn(C)c3)c2c(=O)n1-c1ccccc1`: the IC50 in assay [1] was 100 to 1000 nM; in assay [5], more than 10000 nM; in assay [3], less than 100 nM; in assay [4] it was more than 10000 nM.

For `CNC(=O)c1cnc(N)nc1N[C@@H](C)c1cc2cccc(-c3ccnc(OC)c3)c2c(=O)n1-c1ccccc1`, the IC50 in assay [1] is less than 100 nM; in assay [5], 100 to 1000 nM; in assay [3], less than 100 nM; in assay [4], 100 to 1000 nM.

Source of the values: the Kinase Knowledgebase extract (Sharma et al. 2016).
